Columns and labels:
[1] = test system: Karpas 1106, SU-DHL-5, SeAx and HUT-78 cells; experiment: Cell viability (MTS) of hematologic cancer cell lines under low serum; type: cell-based; details: increasing concentrations, 24 hours, low serum conditions (0.5-5%), FIG. 1A
Description: (A) Karpas 1106, SU-DHL-5, SeAx and HUT-78 cells were plated at a densities of 6×10^3 in 96 well plates (100 μL total volume per well) and treated for 24 hours in a 37° C. incubator (5% CO2) with increasing concentrations of the Antp-AAC-11-LZ (363-399). 20 μL MTS reagent was then added to each well and plates were incubated for an additional 4 hours. Absorbance was measured at 490 nm using a 96-well plate reader. The extent to which the Antp-AAC-11-LZ (363-399) peptide inhibited cell proliferation was calculated as a percentage of the absorbance in each well containing the Antp-AAC-11-LZ (363-399) peptide relative to wells containing no peptide (negative control). […]
Viability of cells cultured in the 96-well culture plates was assessed by measuring mitochondrial dehydrogenase activity, using the colorimetric CellTiter 96® AQueous One Solution Cell Proliferation Assay (Promega), according to the manufacturer′ instructions. […] The color can then be quantified using a simple colorimetric assay. The results are read on a multiwall scanning spectrophotometer (ELISA reader).
The inventors evaluated the capacity of the Antp-AAC-11-LZ (363-399) peptide to induce cell death a panel of hematologic and solid tumor cell lines, both P53 positive and P53 negative, derived from different tissues of origin, under low serum conditions (0.5-5%). […]

[2] = test system: D3H2LN cells; experiment: Proliferation of D3H2LN cells (not showed); type: cell-based
[3] = Toxicity of peptide injection in nude mice; details: i.p. twice per week for 4 weeks
Description: Nude mice were injected intraperitoneally twice a week for 4 weeks with normal saline solution or the indicated doses of Antp-AAC-11-LZ (363-399) peptide (n=3-4 mice per group) and were monitored daily for body weight (mean±s.e.m).
Nude mice were injected intraperitoneally twice a week for 4 weeks with normal saline solution or the indicated doses of Antp-AAC-11-LZ (377-399) peptide (n=3-4 mice per group) and were monitored daily for body weight (mean±s.e.m).
We first evaluated the toxicity of the Antp-AAC-11-LZ (363-399) peptide in nude mice that were injected intraperitoneally twice per week for 4 weeks with the Antp-AAC-11-LZ (363-399) peptide or normal saline solution (dose range: 0.8-4.8 mg peptide/kg body weight; n=3-4 mice per group).
We first evaluated the toxicity of the Antp-AAC-11-LZ (377-399) peptide in nude mice that were injected intraperitoneally twice per week for 4 weeks with the Antp-AAC-11-LZ (377-399) peptide or normal saline solution (dose range: 1-6 mg peptide/kg body weight; n=3-4 mice per group).

[4] = test system: D3H2LN cells; experiment: Transwell Boyden chamber migration assay, D3H2LN cells; type: cell-based; details: 2 μM, toward 10% FBS, 12 h, FIG. 7A
Description: FIG. 7: Antp-AAC-11-LZ (363-399) peptide inhibits cell migration and invasion. (A) D3H2LN cells were added to the upper well of modified Boyden chamber (transwell) plates with a vehicle or with either 2 μM of the Antp-AAC-11-LZ (363-399) peptide or the Antp-only peptide and subjected to a transwell migration assay as described under Materials and methods. The cells were allowed to migrate toward 10% FBS for 12 […]h. Triplicate wells were used for each of three independent experiments. The results are expressed relative to the migration of the untreated cells (=100%). Column: Mean of three experiments. Bar: s.e. P-value was determined by Student's t-test (*P<0.01). (B) D3H2LN cells were seeded in a Matrigel-coated Boyden chamber with a vehicle or with either 2 μM of the Antp-AAC-11-LZ (363-399) peptide or the Antp-only peptide and subjected to a transwell migration assay as described under Materials and methods. The cells were allowed to migrate toward 10% FBS for 24 […]h. Triplicate wells were used for each of three independent experiments. The results are expressed relative to the migration of the untreated cells (=100%). Column: Mean of three experiments. Bar: s.e. P-value was determined by Student's t-test (*P<0.01) […]

Substance: Ac-RQIKIWFKKQNRRMKWKKAKLNAEKLKDFKIRLQYFARGLQVYIRQLRLALQGKT-NH2 [Antp-AAC-11-LZ (363-399)]
- loss of cellular viability [1]: drastic loss of cellular viability
- proliferation at the concentrations used for migration [2]: neither the Antp-AAC-11-LZ (363-399) or TAT-AAC-11-LZ (363-399) peptides impaired proliferation
- mortality ([3]; 0.8-4.8 mg peptide/kg body weight): No mice died
- body weight difference between groups ([3]; 0.8-4.8 mg peptide/kg body weight, FIG. 8A): no significant difference
- toxicity to kidney, lungs, heart, liver, pancreas and spleen ([3]; 0.8-4.8 mg peptide/kg, end of experiment): no obvious toxicity
- cell migration [4]: substantially decreased
